Series [1] has as its target T1, Amine oxidase [flavin-containing] A (Homo sapiens, UniProt P21397).
T1 sequence (P21397 whole entry): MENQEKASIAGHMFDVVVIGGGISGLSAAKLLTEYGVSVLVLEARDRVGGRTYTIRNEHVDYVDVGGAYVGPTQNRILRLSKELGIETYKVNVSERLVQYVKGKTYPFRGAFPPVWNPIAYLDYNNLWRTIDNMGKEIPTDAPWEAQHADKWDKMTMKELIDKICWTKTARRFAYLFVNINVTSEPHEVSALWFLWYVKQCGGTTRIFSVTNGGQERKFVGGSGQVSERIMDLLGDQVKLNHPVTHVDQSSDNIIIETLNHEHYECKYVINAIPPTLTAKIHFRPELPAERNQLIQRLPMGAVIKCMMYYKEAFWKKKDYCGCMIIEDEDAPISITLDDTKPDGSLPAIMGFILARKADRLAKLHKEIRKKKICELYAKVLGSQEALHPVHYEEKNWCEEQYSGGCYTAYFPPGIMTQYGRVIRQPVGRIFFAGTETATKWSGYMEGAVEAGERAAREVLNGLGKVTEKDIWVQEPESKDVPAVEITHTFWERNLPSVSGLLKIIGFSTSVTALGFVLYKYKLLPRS
Nature of the series: Inhibition of recombinant human MAO-A using kynuramine as substrate assessed as 4-hydroxyquinoline production after 30 mins by fluorescence spectrophotometry analysis.

Series [2] has as its target T2, Amine oxidase [flavin-containing] B (Homo sapiens, UniProt P27338).
T2 sequence (P27338 whole entry): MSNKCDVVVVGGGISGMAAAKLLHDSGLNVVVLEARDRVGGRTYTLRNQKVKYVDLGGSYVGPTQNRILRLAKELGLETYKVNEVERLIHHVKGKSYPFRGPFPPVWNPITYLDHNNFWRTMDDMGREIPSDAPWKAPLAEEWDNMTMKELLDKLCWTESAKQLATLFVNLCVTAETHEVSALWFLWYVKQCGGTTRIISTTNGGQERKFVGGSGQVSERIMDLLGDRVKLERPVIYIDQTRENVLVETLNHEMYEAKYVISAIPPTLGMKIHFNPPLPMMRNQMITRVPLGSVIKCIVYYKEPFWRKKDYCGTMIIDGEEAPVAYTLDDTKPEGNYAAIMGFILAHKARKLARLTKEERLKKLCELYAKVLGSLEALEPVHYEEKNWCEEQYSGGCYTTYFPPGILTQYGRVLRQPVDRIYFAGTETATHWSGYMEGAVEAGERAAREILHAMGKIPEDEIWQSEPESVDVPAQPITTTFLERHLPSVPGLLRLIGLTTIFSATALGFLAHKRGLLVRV
Nature of the series: Inhibition of recombinant human MAO-B using kynuramine as substrate assessed as 4-hydroxyquinoline production after 30 mins by fluorescence spectrophotometry analysis.

The species entered for a further series is Homo sapiens. Nature of the series: Selectivity index, ratio of IC50 for recombinant human MAO-A to IC50 for recombinant human MAO-B.
In series [3] the target is T1, Amine oxidase [flavin-containing] A. As to the kind of experiment: Reversible inhibition of recombinant human MAO-A using kynuramine as substrate assessed as enzyme residual activity at 4 times IC50 incubated for 15 mins measured after 24 hrs of dialysis by fluorescence spectrophotometry analysis relative to control.
Series [4] has the same target. As to the kind of experiment: Reversible inhibition of recombinant human MAO-A using kynuramine as substrate assessed as enzyme residual activity at 4 times IC50 incubated for 15 mins measured after 24 hrs by fluorescence spectrophotometry analysis relative to control.
The target is the same in series [5]. Nature of the series: Competitive inhibition of recombinant human MAO-A using kynuramine as substrate by Lineweaver-Burk plot analysis.
The target in series [6] is T2, Amine oxidase [flavin-containing] B. Nature of the series: Reversible inhibition of recombinant human MAO-B using kynuramine as substrate assessed as enzyme residual activity at 4 times IC50 incubated for 15 mins measured after 24 hrs by fluorescence spectrophotometry analysis relative to control.
The target is the same in series [7]. Nature of the series: Competitive inhibition of recombinant human MAO-B using kynuramine as substrate by Lineweaver-Burk plot analysis.

For the molecule `O=C1CCCc2cc(OCc3ccc(C(F)(F)F)cc3)ccc21`, the concentration for half-maximal inhibition (IC50) in series [1] turned out to be 0.547 µM; in series [2], 0.006 µM. Also, the Ratio IC50 in the series filed under Homo sapiens is 91.

With `O=C1CCCc2cc(OCc3ccc(F)cc3)ccc21`, in series [1], the IC50 was 0.266 µM.

Consider `O=C1CCCc2cc(OCc3ccccc3)ccc21`, for which the values for the IC50 in series [1] and in series [2] were 0.792 µM and 0.063 µM, respectively. The Ratio IC50 in the series filed under Homo sapiens came to 13.

With `O=C1CCCc2cc(OCc3ccc(Br)cc3)ccc21`, the IC50 is 0.311 µM in series [1] and 0.009 µM in series [2]. Moreover, the Ratio IC50 in the series listed under Homo sapiens was 35.

On to `O=C1CCCc2cc(OCc3ccc(I)cc3)ccc21`, for which the figures for the IC50 in series [1] and in series [2] were 2.25 µM and 0.0065 µM, respectively. In the series filed under Homo sapiens, the Ratio IC50 was 346.

Take `O=C1CCCc2cc(OCc3cccc(F)c3)ccc21`: the half-maximal inhibitory concentration (IC50) in series [1] is 0.392 µM; in series [2], 0.017 µM. The Ratio IC50 in the series listed under Homo sapiens turned out to be 23.

Take `O=C1CCCc2cc(OCCc3ccccc3)ccc21`: the IC50 in series [1] is 1.32 µM; in series [2], 0.033 µM. The Ratio IC50 in the series filed under Homo sapiens worked out at 40.

On to `O=C1CCCc2cc(OCc3cccc(Br)c3)ccc21`, for which the IC50 came to 0.212 µM in series [1] and 0.009 µM in series [2]. The Ratio IC50 in the series filed under Homo sapiens came to 24.

As for `Cc1ccc(COc2ccc3c(c2)CCCC3=O)cc1`, the IC50 in series [1] was determined as 2.09 µM; in series [2] it was 0.011 µM. The Ratio IC50 in the series filed under Homo sapiens is 190.

`O=C1CCCc2cc(O)ccc21`: the 50% inhibitory concentration (IC50) turned out to be 43.8 µM in series [1] and 66.4 µM in series [2]. Further, the Ratio IC50 in the series filed under Homo sapiens was found to be 0.7.

In the case of `O=C1CCCc2cc(OCc3cccc(Cl)c3)ccc21`, the half-inhibitory concentration (IC50) in series [1] was 0.207 µM; in series [2], 0.015 µM. Also, the Ratio IC50 in the series filed under Homo sapiens turned out to be 14.

With `O=C1CCCc2cc(OCc3ccc(Cl)cc3)ccc21`, the concentration for half-maximal inhibition (IC50) in series [1] came to 0.238 µM.

Regarding `O=C1CCCc2cc(OCCCc3ccccc3)ccc21`, the IC50 turned out to be 1.16 µM in series [1] and 0.032 µM in series [2]. In the series listed under Homo sapiens, the Ratio IC50 came out at 36.

Take `O=C1CCCc2ccccc21`: the IC50 worked out at 14.8 µM in series [1] and 18.6 µM in series [2]. Moreover, in the series listed under Homo sapiens, the Ratio IC50 is 0.8.

For `N#Cc1cccc(COc2ccc3c(c2)CCCC3=O)c1`, the figures for the concentration for half-maximal inhibition (IC50) in series [1] and in series [2] were 0.024 µM and 0.078 µM, respectively. Besides, in the series filed under Homo sapiens, the Ratio IC50 is 0.3. Further, the Activity in series [3] was 108%; in series [4], 44%. In series [5], the Ki came to 0.025 µM.

Take `O=C1CCCc2cc(OCc3cccc(I)c3)ccc21`: the IC50 in series [1] amounted to 1.29 µM; in series [2] it was 0.0045 µM. Moreover, in the series listed under Homo sapiens, the Ratio IC50 came to 287. In addition, the Activity in series [6] was determined as 23%. In addition, the inhibitory constant (Ki) in series [7] was found to be 0.0071 µM.

As for `C#CCN(C)Cc1ccccc1` [PARGYLINE], the Activity in series [3] amounted to 1.6%.

On to `N#Cc1ccc(COc2ccc3c(c2)CCCC3=O)cc1`, for which the half-inhibitory concentration (IC50) in series [1] turned out to be 0.656 µM; in series [2] it was 0.011 µM. Also, the Ratio IC50 in the series filed under Homo sapiens is 60.

The record behind these values is ChEMBL document CHEMBL3286387, “α-Tetralone derivatives as inhibitors of monoamine oxidase” (Bioorg Med Chem Lett, 2014).
